One test addresses T1, EGFR kinase (Homo sapiens, UniProt P00533).
T1 construct: purchased Sigma E-3641
The test can be described thus: EGFR tyrosine kinase enzyme inhibition assay (cell free, DELFIA time resolved fluorescence). It counts as biochemical. Particulars: for IC50 / EGFR kinase activity IC50, range in words: cell free kinase assay. Here is the method: Assessment of the EGFR tyrosine kinase activity of control quinoline 1 together with quinolines 10, 13, 14, 17, 18, 24 and 25 was carried out using a cell free kinase activity inhibition assay as detailed below. BPDQ (4-N-(3-bromophenyl)quinazoline-4,6,7-triamine), a quinazoline based EGFR inhibitor was also included in this assay as a further reference standard.
The inhibitory activity of quinolines 1, 10, 13, 14, 17, 18, 24 and 25 against EGFR kinase activity was measured by a time resolved fluorescence assay (DELFIA, Perkin-Elmer Life Sciences, Boston, Mass., USA). […] The reaction proceeded at rt for 1 h and was stopped by addition of 100 mM EDTA. The enzyme reaction solution was diluted and aliquots added to 96-well ELISA streptavidin plates with shaking for 1 h. The plates were washed and phosphorylated Tyrosine was detected with Eu-labeled antiphosphotyrosine antibody (50 ng/well; PT66; PerkinElmer). After washing and enhancement steps, the plates were assessed in a Victor^3 multi-label counter (PerkinElmer) using the EGFR Europium protocol.

Test [1] deals with T2, EGFR autophosphorylation in A431 cells (Homo sapiens, UniProt P00533).
T2 construct: highly EGFR-expressing A431 cells; endogenous in cells; host or cells: A431 human epidermoid cancer cells (ATCC)
T2 sequence (P00533 25-1210): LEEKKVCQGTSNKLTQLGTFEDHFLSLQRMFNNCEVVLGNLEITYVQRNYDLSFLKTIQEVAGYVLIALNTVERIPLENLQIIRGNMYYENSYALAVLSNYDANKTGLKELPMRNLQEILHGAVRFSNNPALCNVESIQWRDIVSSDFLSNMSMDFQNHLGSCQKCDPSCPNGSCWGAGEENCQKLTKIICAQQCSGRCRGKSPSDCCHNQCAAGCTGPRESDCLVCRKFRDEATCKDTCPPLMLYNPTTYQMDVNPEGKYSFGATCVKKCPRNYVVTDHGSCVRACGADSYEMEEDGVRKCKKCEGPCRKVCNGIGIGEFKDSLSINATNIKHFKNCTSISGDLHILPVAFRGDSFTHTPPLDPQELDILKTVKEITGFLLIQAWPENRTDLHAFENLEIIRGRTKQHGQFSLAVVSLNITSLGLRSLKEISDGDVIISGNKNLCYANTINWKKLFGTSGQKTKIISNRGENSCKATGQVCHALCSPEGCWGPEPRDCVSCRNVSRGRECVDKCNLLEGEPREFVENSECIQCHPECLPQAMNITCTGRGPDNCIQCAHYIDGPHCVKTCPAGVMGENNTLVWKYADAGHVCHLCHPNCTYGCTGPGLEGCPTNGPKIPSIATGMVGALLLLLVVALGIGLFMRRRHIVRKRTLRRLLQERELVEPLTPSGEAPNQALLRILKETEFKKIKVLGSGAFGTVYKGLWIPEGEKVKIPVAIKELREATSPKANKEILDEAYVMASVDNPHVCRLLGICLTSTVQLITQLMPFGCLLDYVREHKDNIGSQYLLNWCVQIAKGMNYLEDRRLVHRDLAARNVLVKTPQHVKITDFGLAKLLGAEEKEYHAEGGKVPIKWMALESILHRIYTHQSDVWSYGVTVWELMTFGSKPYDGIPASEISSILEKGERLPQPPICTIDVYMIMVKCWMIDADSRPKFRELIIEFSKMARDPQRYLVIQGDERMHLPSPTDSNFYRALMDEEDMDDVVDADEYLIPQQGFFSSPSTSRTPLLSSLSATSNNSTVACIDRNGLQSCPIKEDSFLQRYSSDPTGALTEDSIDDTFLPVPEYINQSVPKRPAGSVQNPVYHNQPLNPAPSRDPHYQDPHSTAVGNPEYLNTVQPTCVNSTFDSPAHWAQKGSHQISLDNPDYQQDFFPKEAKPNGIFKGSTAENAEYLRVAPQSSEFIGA
In words: Inhibition of EGFR autophosphorylation in A431 cells (Western blot p-EGFR/total EGFR). The class given is cell-based. Particulars: for IC50: 3 h drug incubation then washing with drug free medium, mean ± sem, n = 3. Here is the method:
The ability of the compounds to be transported across cell membranes and to inhibit EGFR autophosphorylation was examined in highly EGFR-expressing A431 cells.
The cells were maintained in DMEM (Sigma-Aldrich Company Ltd, Dorset, UK) supplemented with 10% fetal bovine serum (Lonza, UK), and 2 mM L-glutamine, 100 U/ml penicillin, 100 μg/mL streptomycin and 1 μg/mL fungizone (GIBCO) in 6 well plates incubated at 37° C. in a humidified incubator with 5% CO2. The experiments were designed to assess irreversibility of EGFR inhibition by the compounds. Cells in exponential growth were incubated with quinolines 1, 10, 13, 14, 17, 18, 24 and 25 at various concentrations for 3 h. EGF (100 ng/ml) was added to the cells during the last 15 min to induce p-EGFR. The medium was removed and replaced with fresh compound-free medium for 1 h. The last step was then repeated twice. The cells were then washed with cold PBS and lysed in RIPA buffer (Invitrogen Ltd, Paisley, UK) supplemented with protease and phosphatase inhibitor cocktails (Sigma-Aldrich Company Ltd, Dorset, UK). Lysates were clarified by centrifugation. The following antibodies were used: rabbit polyclonal antibody anti-p-EGFR (Cell signalling Technology, Denver, Mass.; 1:1000) and rabbit polyclonal antibody anti-EGFR (Santa Cruz Biotechnology, Santa Cruz, Calif.; 1:1000) and mouse monoclonal antibody anti-β-actin (Abcam, UK; 1:10000) as primary antibodies. The secondary antibodies were Goat anti Rabbit IgG HRP (Santa Cruz Biotechnology Santa Cruz, Calif.; 1:2000) and Goat anti Mouse IgG HRP (Autogen Bioclear, UK; 1:2000). The same procedure was used to assess EGFR and phospho-EGFR expression in HCT116 human colon carcinoma cells.
On the technique in general: Immunoblotting shows a protein as a band on a membrane.

Setting [2] is: 25 μM ATP, read-out: IC50 (nM) EGFR kinase activity.

Each structure is given as a SMILES string. Where a name gives a salt, the structure may show the parent alone. Read-outs that look alike come from different tables or passages of the source.

T1 sequence (P00533 25-1210): as above

Usually IC50 stands for the concentration that inhibits the measured activity by half. As for `Nc1cc2ncnc(Nc3cccc(Br)c3)c2cc1N` [BPDQ, 4-N-(3-bromophenyl)quinazoline-4,6,7-triamine, reference compound], at EGFR kinase (setting [2]), the IC50 is 0.81 ± 0.01 nM.
In the case of `CCOc1cc2ncc(C#N)c(Nc3ccc(F)c(Cl)c3)c2cc1NC(=O)/C=C/CNC` [compound 10, (E)-4-(Methylamino)-but-2-enoic acid [4-(3-chloro-4-fluorophenylamino)-3-cyano-7-ethoxy-quinoline-6-yl]amide], at EGFR kinase, the “EGFR kinase activity IC50, range in words” value is listed as “sub-nanomolar”. The IC50 on EGFR kinase (setting [2]) was 0.25 ± 0.06 nM. Besides, in test [1], the “Cellular EGFR autophosphorylation inhibition, IC50 in words” value is “low nanomolar range” and the IC50 was 5.35 ± 1.52 nM.
On to `CCOc1cc2ncc(C#N)c(Nc3ccc(F)c(Cl)c3)c2cc1NC(=O)/C=C/CN(C)CCF` [compound 13, (E)-4-[(2-Fluoroethyl)methylamino]-but-2-enoic acid [4-(3-chloro-4-fluorophenylamino)-3-cyano-7-ethoxyquinoline-6-yl]amide], for which the “EGFR kinase activity IC50, range in words” value at EGFR kinase is on record as “sub-nanomolar”. Moreover, the IC50 on EGFR kinase (setting [2]) came to 0.8 ± 0.04 nM; in test [1], 23 ± 12 nM. The “Cellular EGFR autophosphorylation inhibition, IC50 in words” value in test [1] is “low nanomolar range”.
For `CCOc1cc2ncc(C#N)c(Nc3ccc(F)c(Cl)c3)c2cc1NC(=O)/C=C/CN(C)Cc1ccc(F)cc1` [compound 14, (E)-4-[(4-Fluorobenzyl)methylamino]-but-2-enoic acid [4-(3-chloro-4-fluorophenylamino)-3-cyano-7-ethoxyquinoline-6-yl]amide] the same measures were “sub-nanomolar”, 0.57 ± 0.12 nM, 16.5 ± 8.38 nM and “low nanomolar range”.
For the molecule `CCOc1cc2ncc(C#N)c(Nc3ccc(F)c(Cl)c3)c2cc1NC(=O)/C=C/CNCc1cn(CCF)nn1` [compound 17, (E)-4-{[1-(2-Fluoro-ethyl)-1H-[1,2,3]triazol-4-ylmethyl]-amino}-but-2-enoic acid [4-(3-chloro-4-fluoro-phenylamino)-3-cyano-7-ethoxy-quinolin-6-yl]-amide hydrochloride], on EGFR kinase (17 compared with 18), the “EGFR kinase activity relative to quinoline 18” value is listed as “two-fold more active than 18”. In addition, at EGFR kinase (setting [2]), the IC50 came out at 1.81 ± 0.18 nM. In addition, in test [1], the “Cellular EGFR autophosphorylation inhibition, IC50 in words” value was “low nanomolar range” and half-maximal inhibition (IC50) was put at 22 ± 9.06 nM.
As to `CNC/C=C/C(=O)Nc1cc2c(Nc3ccc(F)c(Cl)c3)c(C#N)cnc2cc1OCCF.Cl` [compound 24, (E)-4-Methylamino-but-2-enoic acid [4-(3-chloro-4-fluorophenylamino)-3-cyano-7-(2-fluoroethoxy)-quinolin-6-yl]-amide hydrochloride], the 50% inhibitory concentration (IC50) came to 0.29 ± 0.03 nM at EGFR kinase (setting [2]) and 8.12 ± 2.03 nM in test [1]. The “Cellular EGFR autophosphorylation inhibition, IC50 in words” value in test [1] is given as “low nanomolar range”.
Regarding `C#CCNC/C=C/C(=O)Nc1cc2c(Nc3ccc(F)c(Cl)c3)c(C#N)cnc2cc1OCC.Cl` [compound 25, (E)-4-Prop-2-ynylaminobut-2-enoic acid [4-(3-chloro-4-fluorophenylamino)-3-cyano-7-ethoxy-quinolin-6-yl]-amide hydrochloride], the IC50 at EGFR kinase (read-out: EGFR kinase activity IC50) was 0.03 nM. For the same molecule, in test [1], the “Cellular EGFR autophosphorylation inhibition, IC50 in words” value is given as “low nanomolar range” and the concentration for half-maximal inhibition (IC50) was 60.2 ± 17.1 nM.

The values above are taken from patent US20130116206A1, “QUINOLINE DERIVATIVES USED AS PET IMAGING AGENTS” (IMPERIAL INNOVATIONS LIMITED, priority 2009, published 2013).
